From ChEMBL document CHEMBL1140663, “Effect of the minor ABA metabolite 7'-hydroxy-ABA on Arabidopsis ABA 8'-hydroxylase CYP707A3” (Bioorg Med Chem Lett, 2007) come the findings set out here.

For experiment [1], the target named is T1, Abscisic acid 8'-hydroxylase 3 (Arabidopsis thaliana, UniProt Q9FH76).
T1 sequence (Q9FH76 whole entry): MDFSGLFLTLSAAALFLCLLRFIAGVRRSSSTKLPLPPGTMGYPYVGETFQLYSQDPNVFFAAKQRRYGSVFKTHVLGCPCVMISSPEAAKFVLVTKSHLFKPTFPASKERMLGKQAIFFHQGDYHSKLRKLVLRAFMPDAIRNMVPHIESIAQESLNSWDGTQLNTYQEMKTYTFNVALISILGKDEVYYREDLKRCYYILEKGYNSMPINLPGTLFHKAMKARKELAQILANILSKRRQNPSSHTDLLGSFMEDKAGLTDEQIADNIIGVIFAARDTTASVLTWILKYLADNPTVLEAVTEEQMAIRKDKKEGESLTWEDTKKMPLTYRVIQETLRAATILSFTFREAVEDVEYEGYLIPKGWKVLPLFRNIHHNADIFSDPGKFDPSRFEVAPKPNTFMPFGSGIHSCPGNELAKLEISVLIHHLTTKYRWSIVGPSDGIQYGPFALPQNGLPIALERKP
The experiment is described as follows: Inhibition of recombinant CYP707A3 at 5 uM.

The target of experiment [2] is T1, Abscisic acid 8'-hydroxylase 3. Kind of experiment: Inhibition of recombinant CYP707A3 at 50 uM.

Usually inhibition stands for the share of the control response that was lost under treatment. For the compound `CC(=C/C(=O)O)/C=C/[C@@]1(O)C(C=O)=CC(=O)CC1(C)C`, the inhibition at 5 µM in experiment [1] is 15%. For the same compound, the inhibition at 50 µM in experiment [2] was found to be 63%.

Consider `CC(=C/C(=O)O)/C=C/[C@H]1C(CO)=CC(=O)CC1(C)C`, for which the inhibition at 5 µM in experiment [1] came out at 0%. Besides, the inhibition at 50 µM in experiment [2] worked out at 24%.

For the compound `CC(=C/C(=O)O)/C=C/[C@@]1(O)C(CO)=CC(=O)CC1(C)C`, in experiment [1], the inhibition at 5 µM worked out at 0%. Besides, the inhibition at 50 µM in experiment [2] came out at 0%.
